The source of these data is publication PMC8066730, “Alteration of Anticancer and Protein-Binding Properties of Gold(I) Alkynyl by Phenolic Schiff Bases Moieties” (Pharmaceutics, 2021).

In series [1] the test system is HOP-62 (non-small-cell lung cancer cell line). As to the kind of experiment: SRB cytotoxicity assay, HOP-62. It counts as cell-based, human. Particulars: 3 days incubation, DMSO solutions. The procedure: (§1) The cells were obtained by the Egyptian Holding Company for Biological Products and Vaccines (VACSERA) and then maintained in the tissue culture unit. Cells were grown in RPMI-1640 medium, supplemented with 10% heat inactivated FBS, 50 units/mL of penicillin, and […] of streptomycin, and maintained in a humidified atmosphere with 5% carbon dioxide. The cells were kept as monolayer cultures by serial sub-culturing, using cell culture reagents from Lonza (Basel, Switzerland). The antitumor activities of the complexes were assessed against OVCAR-3 (ovarian carcinoma cancer) and HOP-62 (non-small-cell lung cancer) cell lines.
(§2) The sulforhodamine B (SRB) assay method was applied to determine the cytotoxicity, as described in the literature. Exponentially growing cells were collected using 0.25% Trypsin-EDTA and seeded in 96-well plates at 1000–2000 cells/well in RBMI-1640 supplemented medium. The cells were kept in the medium for 24 h and then incubated for 3 days with various concentrations of the gold compounds. Following 3 days of treatment, the cells were fixed with 10% Cl3CCOOH for 60 min at 4 °C. Wells were stained for 10 min at room temperature with 0.4% SRBC dissolved in 1% CH3COOH. The plates were air dried for 24 h, and the dye was dissolved in Tris-HCl for 5 min with shaking at 1600 rpm. The optical density of each well was evaluated spectrophotometrically at 564 nm with an ELISA microplate reader (ChroMate-4300, Orlando, FL, USA). The half […] inhibitory concentration (IC50) values were calculated from a Boltzmann sigmoidal concentration response curve using nonlinear regression fitting models (Graph Pad, Prism Version 9, San Diego, CA, USA).

Series [2] has as its target human serum albumin (HSA) (Homo sapiens, UniProt P02768). In words: HSA fluorescence quenching binding study. On the set-up: Kq (quenching rate constant): unit not given here. To be noted: for n (number of binding sites) / Ksv (Stern–Volmer quenching constant) / Kq (quenching rate constant) / ∆G^0 (Gibbs free energy of binding to HSA): 295 K; for Ksv (Stern–Volmer quenching constant): HSA 32 µM, Tris-HCl/NaCl buffer pH 7.4, ca. 20% DMSO; for Kq (quenching rate constant): Ksv = Kq × τ0, τ0 = 7 ns; for ∆G^0 (Gibbs free energy of binding to HSA): calculated from Kb; for fold enhancement in HSA binding affinity on replacing triphenylphosphine with tricyclohexylphosphine: proceeding from 1 to 2 and 3 to 5; for fold increase in HSA binding affinity on introducing the o-phenolic moiety: proceeding from 1 to 3 and 2 to 5. The procedure:
Human serum albumin (HSA) solution (32 µM) was prepared in Tris-HCl/NaCl aqueous buffer (pH = 7.4). The solution was titrated with different concentrations of complexes 1–5 in DMSO (the amount of DMSO was maintained at ca. 20% v/v). The changes in the emission intensity of the protein were followed at around 330 nm upon excitation at 275 nm after incubating the complexes for 4 min at 295 K. The Stern–Volmer quenching constants (KSV) were obtained from Equation (1), where Io and I are the emission intensities of the protein in the absence and the presence of the complexes, respectively. The […]; the KSV value was defined as the slope of the line. The Stern–Volmer constant is related to the quenching constant by Equation (2), where Kq is the quenching rate constant, and τ0 is the average lifetime of the fluorescence for free HSA (τ0 = 7 ns). The binding constant (Kb, M^−1) and the number of binding sites (n) were calculated by plotting log[Io − I/I] against Log [Au complex], where the slope equals n and the intercept is equivalent to Log Kb according to Equation (3). Gibbs free energy (∆G^0) of the binding to HSA protein can be calculated by employing Equation (4), using the binding constant (Kb, M^−1). I0/I = 1 + Ksv [Au complex](1) Ksv = Kq × τ0(2) Log(I0 − I)/I = Log Kb + n Log [Au complex](3) ∆G^0 = −R × T × Ln × Kb(4)

Series [3] concerns OVCAR-3 (ovarian carcinoma cancer cell line). As to the kind of experiment: SRB cytotoxicity assay, OVCAR-3. Type of series: cell-based. Particulars: for IC50: 3 days incubation, SRB, DMSO solutions. The procedure: as §1, §2

human serum albumin (HSA), sequence (P02768 25-609): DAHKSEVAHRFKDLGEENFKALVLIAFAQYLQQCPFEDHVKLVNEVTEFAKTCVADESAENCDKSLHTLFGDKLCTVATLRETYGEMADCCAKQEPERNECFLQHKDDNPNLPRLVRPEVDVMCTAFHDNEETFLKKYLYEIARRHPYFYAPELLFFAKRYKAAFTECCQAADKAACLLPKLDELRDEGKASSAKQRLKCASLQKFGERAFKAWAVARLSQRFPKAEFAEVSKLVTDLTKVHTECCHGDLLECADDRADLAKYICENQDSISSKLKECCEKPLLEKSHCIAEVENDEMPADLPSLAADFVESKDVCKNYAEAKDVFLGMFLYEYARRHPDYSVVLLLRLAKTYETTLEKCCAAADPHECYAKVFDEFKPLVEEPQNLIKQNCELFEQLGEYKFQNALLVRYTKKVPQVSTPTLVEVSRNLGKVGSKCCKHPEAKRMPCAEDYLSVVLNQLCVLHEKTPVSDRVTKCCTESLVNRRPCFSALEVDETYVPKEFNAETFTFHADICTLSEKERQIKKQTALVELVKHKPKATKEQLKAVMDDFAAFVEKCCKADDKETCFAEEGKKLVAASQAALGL

`Oc1ccc(N=Cc2ccc(C#[C][Au][PH](c3ccccc3)(c3ccccc3)c3ccccc3)cc2)cc1` [Compound 4, HO–4–C6H4–N=C–4-C6H4-C≡C–Au-PPh3] came in with a half-inhibitory concentration (IC50) in series [1] of 8.16 ± 0.43 µM. In addition, in series [2], the “n (number of binding sites)” value is 1.61, the “Ksv (Stern–Volmer quenching constant)” value is on record as 71.5 ×10^4, the “Kq (quenching rate constant)” value was 102.21 ×10^12 and the “∆G^0 (Gibbs free energy of binding to HSA)” value is -12.4 kcal/mol. In addition, the “HSA binding constant relative to complex 3 (2-hydroxy)” value in series [2] (ratio of Kb, complex 4 vs complex 3) is 6400 times. Moreover, in series [3], the IC50 is 5.27 ± 0.11 µM. The “cytotoxic activity against OVCAR-3 in words” value in series [3] (compared with cisplatin) was “comparable to that of cisplatin”.
Consider `N.N.[Cl][Pt][Cl]` [cisplatin, reference compound], for which the IC50 turned out to be 3.91 ± 0.2 µM in series [1] and 5.89 ± 0.12 µM in series [3].
Au(C≡C-C6H4-4-CHO)(PPh3) [Compound 1] had an IC50 in series [1] of 12.5 ± 0.43 µM. For the same molecule, in series [2], the “n (number of binding sites)” value is recorded as 0.82, the “Ksv (Stern–Volmer quenching constant)” value was 4.7 ×10^4, the “Kq (quenching rate constant)” value is 6.71 ×10^12 and the “∆G^0 (Gibbs free energy of binding to HSA)” value was -5.07 kcal/mol. The IC50 in series [3] was found to be 13.7 ± 0.53 µM.
“HO–2–C6H4–N=C–4-C6H4-C≡C–Au-PCy3 [Compound 5]”: the concentration for half-maximal inhibition (IC50) in series [1] was 7.55 ± 0.43 µM. Moreover, in series [2], the “n (number of binding sites)” value is recorded as 1.37, the “Ksv (Stern–Volmer quenching constant)” value is given as 37.1 ×10^4, the “Kq (quenching rate constant)” value was 52.96 ×10^12 and the “∆G^0 (Gibbs free energy of binding to HSA)” value is -10.27 kcal/mol. Also, in series [2], the “fold enhancement in HSA binding affinity on replacing triphenylphosphine with tricyclohexylphosphine” value stood at 170 fold and the “fold increase in HSA binding affinity on introducing the o-phenolic moiety” value is reported as 240 fold. Further, the concentration for half-maximal inhibition (IC50) in series [3] is 9.11 ± 0.12 µM.
As to “HO–2–C6H4–N=C–4-C6H4-C≡C–Au-PPh3 [Compound 3]”, half-maximal inhibition in series [1] (IC50) required 7.25 ± 0.21 µM. In series [2], the “n (number of binding sites)” value is on record as 0.96, the “Ksv (Stern–Volmer quenching constant)” value is on record as 38.9 ×10^4, the “Kq (quenching rate constant)” value was 55.57 ×10^12 and the “∆G^0 (Gibbs free energy of binding to HSA)” value is -7.239 kcal/mol. In addition, the “fold increase in HSA binding affinity on introducing the o-phenolic moiety” value in series [2] stood at 40 fold. In addition, in series [3], 9.4 ± 0.17 µM corresponded to half-maximal inhibition (IC50).
In the case of OHC-4-C6H4-C≡C-Au-PCy3 [Compound 2], in series [1], the IC50 is 14.82 ± 0.13 µM. Also, in series [2], the “n (number of binding sites)” value came out at 1.16, the “Ksv (Stern–Volmer quenching constant)” value is on record as 2.8 ×10^4, the “Kq (quenching rate constant)” value is given as 4.00 ×10^12 and the “∆G^0 (Gibbs free energy of binding to HSA)” value is -7.15 kcal/mol. In series [2], the “fold enhancement in HSA binding affinity on replacing triphenylphosphine with tricyclohexylphosphine” value came out at 30 fold. The molecule also had an IC50 in series [3] of 15.9 ± 0.53 µM.
